Reference: ChEMBL document CHEMBL1131872, “3-Amidinophenylalanine-based inhibitors of urokinase” (Bioorg Med Chem Lett, 1999)

Assays:
[1] = target: T1, Urokinase-type plasminogen activator (Homo sapiens, UniProt P00749); experiment: Tested for inhibition of plasminogen activator urokinase (microPa)
[2] = target: T2, Plasminogen (Homo sapiens, UniProt P00747); experiment: Tested for inhibition of plasmin
[3] = target: T3, Serine protease 1 (Bos taurus, UniProt P00760); experiment: Tested for inhibition of trypsin
T3 sequence (P00760 whole entry): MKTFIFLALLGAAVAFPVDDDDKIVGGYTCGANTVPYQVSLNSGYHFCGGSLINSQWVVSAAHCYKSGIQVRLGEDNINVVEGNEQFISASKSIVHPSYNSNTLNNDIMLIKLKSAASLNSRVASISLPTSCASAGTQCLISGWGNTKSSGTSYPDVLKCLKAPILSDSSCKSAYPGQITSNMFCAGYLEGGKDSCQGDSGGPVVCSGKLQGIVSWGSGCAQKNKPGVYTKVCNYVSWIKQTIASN

[4] = target: T1, Urokinase-type plasminogen activator; experiment: Compound was tested for inhibition of plasminogen activator urokinase (microPa).
[5] = target: Coagulation factor X (Bos taurus, UniProt P00743); experiment: Compound was tested for inhibition of Coagulation factor X
Coagulation factor X, sequence (P00743 41-180 limits assumed): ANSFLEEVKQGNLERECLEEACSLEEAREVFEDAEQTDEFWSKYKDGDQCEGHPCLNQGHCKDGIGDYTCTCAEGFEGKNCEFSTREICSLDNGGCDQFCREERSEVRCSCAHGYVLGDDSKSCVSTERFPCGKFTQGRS
Coagulation factor X, sequence (P00743 234-492 limits assumed): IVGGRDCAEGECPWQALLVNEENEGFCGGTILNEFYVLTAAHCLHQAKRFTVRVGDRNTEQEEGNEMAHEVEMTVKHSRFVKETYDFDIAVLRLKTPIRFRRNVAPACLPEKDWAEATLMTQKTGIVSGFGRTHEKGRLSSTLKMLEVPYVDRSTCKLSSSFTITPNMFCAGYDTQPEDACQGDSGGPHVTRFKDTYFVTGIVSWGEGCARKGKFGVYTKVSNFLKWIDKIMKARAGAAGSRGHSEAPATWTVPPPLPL

[6] = target: T1, Urokinase-type plasminogen activator; experiment: Compound was tested for inhibition of plasminogen activator urokinase (microPa)
[7] = target: Plasma kallikrein (Homo sapiens, UniProt P03952); experiment: Compound was tested for inhibition of plasma kallikrein
Plasma kallikrein, sequence (P03952 20-390 limits assumed): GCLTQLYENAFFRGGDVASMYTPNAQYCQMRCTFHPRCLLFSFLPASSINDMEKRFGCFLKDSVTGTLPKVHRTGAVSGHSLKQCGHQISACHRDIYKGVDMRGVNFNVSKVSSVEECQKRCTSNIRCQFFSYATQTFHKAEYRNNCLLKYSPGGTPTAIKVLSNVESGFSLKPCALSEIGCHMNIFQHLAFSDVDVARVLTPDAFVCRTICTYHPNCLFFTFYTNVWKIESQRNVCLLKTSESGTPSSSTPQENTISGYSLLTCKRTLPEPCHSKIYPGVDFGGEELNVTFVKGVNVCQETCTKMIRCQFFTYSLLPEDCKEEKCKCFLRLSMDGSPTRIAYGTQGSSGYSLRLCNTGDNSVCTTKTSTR
Plasma kallikrein, sequence (P03952 391-638 limits assumed): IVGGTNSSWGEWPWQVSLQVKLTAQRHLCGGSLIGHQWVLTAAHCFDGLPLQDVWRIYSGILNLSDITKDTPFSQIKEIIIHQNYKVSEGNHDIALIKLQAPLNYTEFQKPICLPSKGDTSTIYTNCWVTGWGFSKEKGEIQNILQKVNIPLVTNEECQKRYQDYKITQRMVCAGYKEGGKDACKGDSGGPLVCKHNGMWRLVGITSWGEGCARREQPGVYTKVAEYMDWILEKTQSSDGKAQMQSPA

[8] = target: T2, Plasminogen; experiment: Compound was tested for inhibition of plasmin
[9] = Compound was tested for inhibition of protein Ca
[10] = target: Prothrombin (Homo sapiens, UniProt P00734); experiment: Compound was tested for inhibition of thrombin; design: species or system Bos taurus
[11] = target: T3, Serine protease 1; experiment: Compound was tested for inhibition of trypsin
[12] = Compound was tested for inhibition of sc-tissue plasminogen activator

T2 sequence (P00747 97-580 limits assumed): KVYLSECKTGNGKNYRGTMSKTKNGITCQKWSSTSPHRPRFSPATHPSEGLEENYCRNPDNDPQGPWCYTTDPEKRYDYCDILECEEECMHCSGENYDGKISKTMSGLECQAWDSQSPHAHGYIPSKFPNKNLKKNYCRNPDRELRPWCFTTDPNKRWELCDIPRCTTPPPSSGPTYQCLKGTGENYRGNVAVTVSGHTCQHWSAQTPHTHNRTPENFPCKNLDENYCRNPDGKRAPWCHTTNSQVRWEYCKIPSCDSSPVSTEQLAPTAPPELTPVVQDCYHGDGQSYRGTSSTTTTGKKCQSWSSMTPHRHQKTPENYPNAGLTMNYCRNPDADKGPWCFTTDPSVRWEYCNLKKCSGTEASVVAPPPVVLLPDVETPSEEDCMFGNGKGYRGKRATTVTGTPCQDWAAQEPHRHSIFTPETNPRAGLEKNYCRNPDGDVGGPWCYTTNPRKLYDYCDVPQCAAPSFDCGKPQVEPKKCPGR
T2 sequence (P00747 581-810 limits assumed): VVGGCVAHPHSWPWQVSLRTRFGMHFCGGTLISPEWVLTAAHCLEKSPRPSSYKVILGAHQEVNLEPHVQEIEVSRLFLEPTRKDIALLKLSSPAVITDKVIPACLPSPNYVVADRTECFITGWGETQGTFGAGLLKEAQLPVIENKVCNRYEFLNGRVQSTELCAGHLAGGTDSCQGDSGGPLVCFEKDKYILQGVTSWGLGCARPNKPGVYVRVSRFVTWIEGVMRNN

| Ki [1] | Ki [2] | Ki [3] | SMILES | other results |
| --- | --- | --- | --- | --- |
| 33 µM | 1 µM | 1.4 µM | COC(=O)C1CCCCN1C(=O)C(Cc1cccc(C(=N)N)c1)NS(=O)(=O)c1c(C(C)C)cc(C(C)C)cc1C(C)C (stereo not drawn) |  |
|  | 4 µM |  | CC1CCN(C(=O)C(Cc2cccc(C(=N)N)c2)NS(=O)(=O)c2c(C(C)C)cc(C(C)C)cc2C(C)C)CC1 (stereo not drawn) |  |
| 1.3 µM | 1.5 µM | 0.5 µM | CC(C)c1cc(C(C)C)c(S(=O)(=O)NC(Cc2cccc(C(=N)N)c2)C(=O)N2CCCCC2C(=O)O)c(C(C)C)c1 (stereo not drawn) |  |
| 19 µM | 9.6 µM | 3.9 µM | CC(C)c1cc(C(C)C)c(S(=O)(=O)NC(Cc2cccc(C(=N)N)c2)C(=O)N2CCCC2)c(C(C)C)c1 (stereo not drawn) |  |
| 2.5 µM | 1 µM | 0.36 µM | COC(=O)C1CCCN(C(=O)C(Cc2cccc(C(=N)N)c2)NS(=O)(=O)c2c(C(C)C)cc(C(C)C)cc2C(C)C)C1 (stereo not drawn) |  |
| 4.8 µM | 2.5 µM | 0.36 µM | CNC(=O)C1CCN(C(=O)C(Cc2cccc(C(=N)N)c2)NS(=O)(=O)c2c(C(C)C)cc(C(C)C)cc2C(C)C)CC1 (stereo not drawn) |  |
| 12 µM | 0.4 µM |  | CNC(=O)C1CCCN(C(=O)C(Cc2cccc(C(=N)N)c2)NS(=O)(=O)c2c(C(C)C)cc(C(C)C)cc2C(C)C)C1 (stereo not drawn) |  |
| 1.3 µM | 1.4 µM |  | COC(=O)C1CCN(C(=O)C(Cc2cccc(C(=N)N)c2)NS(=O)(=O)c2c(C(C)C)cc(C(C)C)cc2C(C)C)CC1 (stereo not drawn) |  |
| 17 µM | 8.2 µM |  | CC(C)c1cc(C(C)C)c(S(=O)(=O)NC(Cc2cccc(C(=N)N)c2)C(=O)N2CCCC(C(=O)O)C2)c(C(C)C)c1 (stereo not drawn) |  |
| 52 µM | 12 µM | 6.4 µM | CC(C)c1cc(C(C)C)c(S(=O)(=O)NC(Cc2cccc(C(=N)N)c2)C(=O)N2CCC(C(=O)O)CC2)c(C(C)C)c1 (stereo not drawn) |  |
| 5.1 µM | 2.6 µM | 1.3 µM | CC(C)c1cc(C(C)C)c(S(=O)(=O)NC(Cc2cccc(C(=N)N)c2)C(=O)N2CCCCC2)c(C(C)C)c1 (stereo not drawn) |  |
|  | 1.8 µM | 0.11 µM | COC(=O)N1CCN(C(=O)C(Cc2cccc(C(=N)N)c2)NS(=O)(=O)c2c(C(C)C)cc(C(C)C)cc2C(C)C)CC1 (stereo not drawn) |  |

Further lines, the compound ahead of its results:

| SMILES | Ki [1] | Ki [2] | Ki [3] | other results |
| --- | --- | --- | --- | --- |
| CC(C)c1cc(C(C)C)c(S(=O)(=O)NC(Cc2cccc(C(=N)N)c2)C(=O)N2CCN(C)CC2)c(C(C)C)c1 (stereo not drawn) | 52 µM | 21 µM | 3 µM |  |
| CC(C)c1cc(C(C)C)c(S(=O)(=O)NC(Cc2cccc(C(=N)N)c2)C(=O)N2CCNCC2)c(C(C)C)c1 (stereo not drawn) | 12 µM | 7.1 µM | 0.98 µM |  |
| CC(C)c1cc(C(C)C)c(S(=O)(=O)NC(Cc2cccc(C(=N)N)c2)C(=O)N2CCOCC2)c(C(C)C)c1 (stereo not drawn) | 5.4 µM | 4.5 µM | 0.49 µM |  |
| N=C(N)c1cccc(CC(NS(=O)(=O)c2ccc3ccccc3c2)C(=O)N2CCCC2)c1 (stereo not drawn) |  | 12 µM |  | Ki [4]: 73 µM |
| CC(C)c1cc(C(C)C)c(S(=O)(=O)NC(Cc2cccc(C(=N)N)c2)C(=O)N2CCCCCC2)c(C(C)C)c1 (stereo not drawn) | 4.4 µM | 2.8 µM | 0.95 µM |  |
| N=C(N)c1cccc(CC(NS(=O)(=O)c2ccc3ccccc3c2)C(=O)N2CCOCC2)c1 (stereo not drawn) | 58 µM | 7.7 µM |  |  |
| N=C(N)c1cccc(CC(NS(=O)(=O)c2ccc3ccccc3c2)C(=O)N2CCCCCCC2)c1 (stereo not drawn) | 19 µM | 7.8 µM |  |  |
| N=C(N)c1cccc(CC(NS(=O)(=O)c2ccc3ccccc3c2)C(=O)N2CCCCCC2)c1 (stereo not drawn) | 28 µM | 6.6 µM | 0.74 µM |  |
| CCOC(=O)N1CCN(C(=O)[C@H](Cc2cccc(C(=N)N)c2)NS(=O)(=O)c2c(C(C)C)cc(C(C)C)cc2C(C)C)CC1 |  |  |  | Ki [5]: 1.7 µM; Ki [6]: 0.41 µM; Ki [7]: 7.2 µM; Ki [8]: 0.39 µM; Ki [9]: 2.3 µM; Ki [10]: 0.49 µM; Ki [11]: 0.037 µM; Ki [12]: 4.9 µM |
| CCOC(=O)N1CCN(C(=O)C(Cc2cccc(C(=N)N)c2)NS(=O)(=O)c2c(C(C)C)cc(C(C)C)cc2C(C)C)CC1 (stereo not drawn) | 0.96 µM | 1.2 µM | 0.12 µM |  |
| CC(C)c1cc(C(C)C)c(S(=O)(=O)NC(Cc2cccc(C(=N)N)c2)C(=O)N2CCN(S(C)(=O)=O)CC2)c(C(C)C)c1 (stereo not drawn) | 19 µM | 8 µM | 0.62 µM |  |
| CC(C)c1cc(C(C)C)c(S(=O)(=O)NC(Cc2cccc(C(=N)N)c2)C(=O)N2CCCCCCC2)c(C(C)C)c1 (stereo not drawn) | 7.8 µM | 3.2 µM | 0.83 µM |  |
